# Measurements published in patent publication US20160120915A1, “METHODS FOR MANIPULATING IMMUNE RESPONSES BY ALTERING MICROBIOTA” (NEW YORK UNIVERSITY, priority 2013, published 2016).
# Where a name gives a salt, the structure may show the parent alone.
# Legend:
# ileum [1] = assay: EarlySTAT: ileal gene expression by qPCR in 4- and 8-week mice; assay type: in vivo, C57BL/6J mice; settings: STAT vs control
# Excerpt: C57BL/6J (Jackson Labs, Bar Harbor, Me.) mice either received no antibiotics (control) or continuous STAT penicillin. Mice were weaned at 4 weeks onto normal chow (13.2% fat, 5053 PicoLab Rodent Diet 20, LabDiet, Brentwood, Mo.), then switched to a high fat diet (45% kcal from fat, D12451, Research Diets, New Brunswick, N.J.) at 6 weeks of life. Mice were sacrificed at 4, 8, and 18 weeks of age. The terminal[1 cm] ileum without Peyer's Patches [TI-] was collected for gene expression analysis by qPCR. The proximal 1 cm of ileum was used for histological analysis of tissue structure, and the remaining ileum was used to determine immunity phenotypes by flow cytometry.
# C57BL6J mice were exposed to sub-therapeutic antibiotic treatment (STAT) with penicillin via their drinking water from birth, or no antibiotics (Control). Mice were fed a normal diet until 6 weeks of age, then they were fed high fat diet. 5 mice from each experimental group were sacrificed at 4 weeks, and 4 mice from each group were sacrificed at 8 weeks. The terminal[1 cm] ileum without Peyer's Patches [TI-] was collected for gene expression analysis by qPCR. The proximal 1 cm of ileum was used for histological analysis of tissue structure, and the remaining ileum was used to determine immunity phenotypes by flow cytometry. Ileal gene expression was also measured by microarray and the nCounter GX Mouse Immunology Kit (Nanostring Technologies, Seattle, Wash., USA).
# (§1) Total RNA was extracted from mouse tissues using the RNeasy Mini Kit (Qiagen), according to the manufacturer's instructions. Total RNA was reverse transcribed to cDNA using the Verso™ cDNA Synthesis Kit (Thermo Scientific). To generate standards for expression analysis of each target gene, the cDNA region of interest was PCR-amplified and the PCR product was cloned into pGEM-T easy (Promega). qPCR was performed with LightCycler 480 SYBR Green I Master mix (Roche) and run in a LightCycler 480 system (Roche). Target mRNA was normalized to GAPDH mRNA as an internal control in each sample.
# Ileal expression of T-bet [Th1], GATA3 [Th2], Foxp3 [Treg], and RORγt [Th17] (FIG. 4A), and IFNγ [Th1], IL-4 [Th2], TGFβ1 [Treg], and IL-17 [Th17] (FIG. 4B) (4-week; Control, n=4, STAT, n=5, 8-week; Control, n=3, STAT, n=4) was quantitated by qPCR and normalized by GAPDH expression. […] These studies provide evidence that low dose antibiotic exposure can be used to change immune effector T-cell populations and the effector molecules they produce.
# Ileal expression of defensin β1, Reg3γ, and Relmβ (4-week; Control n=4, STAT n=5, 8-week; Control n=3, STAT n=4) was quantitated by qPCR and normalized by GAPDH expression. […] These findings provide examples of how the STAT exposure changed intestinal expression of antimicrobial peptide genes.
# Ileal expression of the IgA J-chain, polymeric Ig receptor (pIgR), both related to polymeric IgA function, and TLR2 and TLR4 was quantitated by qPCR and normalized by GAPDH expression in 4- and 8-week STAT [4-week; Control n=3, STAT n=4, 8-week; Control n=3, STAT n=4].
# ileum [2] = assay: TRANSTAT: ileal expression by qPCR in 18-week microbiota donor mice; assay type: in vivo, C57BL6J mice; settings: 18-week STAT-donor mice vs control donors
# Experimental: as §1
# C57BL/6J (Jackson Labs, Bar Harbor, Me.) mice either received no antibiotics (control) or continuous STAT penicillin. Mice were weaned at 4 weeks onto normal chow (13.2% fat, 5053 PicoLab Rodent Diet 20, LabDiet, Brentwood, Mo.), then changed to a high fat diet (45% kcal from fat, D12451, Research Diets, New Brunswick, N.J.) at 6 weeks of life. At 18 weeks of age, from each group (Control, n=9; STAT, n=8), the three animals with weight at or closest to the median were selected as cecal content donors. Donor mice were humanely euthanized, and the proximal ⅓ of the cecum was aseptically removed and after a series of processing steps, either the pooled Control or STAT microbiota suspensions were placed in the stomachs of the germ-free recipients (Control, n=7 recipients; STAT, n=8) by oral gavage. Recipients were chosen randomly, and the inoculum alternated between control and STAT recipients. […] The microbiota-recipient mice were housed in autoclaved cages, under specific pathogen-free conditions, and fed an irradiated high fat diet (45% kcal from fat, D12451, Research Diets, New Brunswick, N.J.), and followed for the next 35 days until sacrifice. Fecal pellets were collected serially from the time of transfer.
# Mice were fed normal chow, then switched to high fat diet at 6 weeks of age. At 18 weeks, cecal contents were collected from 3 control and 3 STAT mice, based on their median weight, pooled, and transferred to 3-4 week old germ-free Swiss Webster mice by oral gavage. Every attempt was made to maintain viability of the microbiota by protecting the microbiota from oxygen and minimizing time between microbiota collection and transfer. Microbiota recipient mice were monitored for 5 weeks, then ileal samples were collected to assess immunity by flow cytometry and qPCR. Ileal gene expression was also measured by microarray and Nanostring Immunology Panel (FIG. 13).
# Expression levels were measured by qPCR and normalized by GAPDH expression.
# [3] = tested on: splenic CD4+ and CD8+ T-cells; assay: NOD: flow cytometry of IFNγ-producing splenic T-cells; assay type: in vivo; settings: 6-week old male NOD mice, n=7, vs controls, p<0.01
# Experimental: Leukocytes were isolated from spleens harvested from 6-week old control (n=7) and PAT-treated (n=7) NOD mice. Flow cytometric analysis was performed to assess T-cell cytokine production. Mann-Whitney U-test, ** p<0.01. Bar heights represent the means and error bars represent the standard deviations. […] Taxa with at least two significant timepoints (indicated by *) are illustrated at the phylum, genus, and species level. Dark grey and light grey coloration indicates enrichment at the specified time point in control and in PAT specimens, respectively.
# terminal ileum = assay: PAT: ileal expression by qPCR in 6-week mice; assay type: in vivo, C57BL/6 mice; settings: 6-week male mice, 3 pulses, vs control, p<0.05
# [4] = 4- and 8-week, qPCR and microarray
SMILES,"expression of all four transcription factors (T-bet, GATA3, Foxp3, RORγt) (ileum [1]; 4- and 8-week mice)","ileal B cell markers (IgA J-chain, pIgR) (ileum [1]; [4])","ileal TLRs (TLR2, TLR4) (ileum [1]; [4])","ileal expression of IL-17 [Th17] (ileum [1]; at 4- and 8-weeks, p<0.05)","ileal expression of RORγt [Th17] (ileum [1]; at 4- and 8-weeks, p<0.05)","ileal expression of T-bet [Th1] (ileum [1]; at 4- and 8-weeks, p<0.05)","ileal expression of IFNγ [Th1] (ileum [1]; at 4-weeks, p<0.05)","ileal Relmβ expression (ileum [1]; at 4 weeks, p<0.05)","ileal expression of GATA3 [Th2] (ileum [1]; at 8-weeks, p<0.05)","ileal expression of TGFβ1 [Treg] (ileum [1]; at 8-weeks, p<0.05)","ileal expression of all three antimicrobial peptides (defensin β1, Reg3γ, Relmβ) (ileum [1]; at 8 weeks, p<0.05)",ileal expression of IL-17A (ileum [2]),ileal expression of IL-17F (ileum [2]),ileal expression of RORγt (ileum [2]),ileal expression of Reg3γ (ileum [2]),ileal expression of defensin β1 (ileum [2]),proportion of IFNγ-producing splenic CD4+ T-cells [3],proportion of IFNγ-producing splenic CD8+ T-cells [3],ileal Relmβ expression (terminal ileum)
"CC1(C)S[C@@H]2[C@H](NC(=O)COc3ccccc3)C(=O)N2[C@H]1C(=O)[O-].[K+] [STAT, penicillin VK]",trended downwards,significantly down-regulated,downward trend,significantly down-regulated,significantly down-regulated,significantly down-regulated,significantly down-regulated,significantly lower,significantly down-regulated,significantly down-regulated,significantly lower,significantly down-regulated,downward trend,downward trend,significantly down-regulated,significantly down-regulated,–,–,–
"CC[C@H]1OC(=O)C[C@@H](O)[C@H](C)[C@@H](O[C@@H]2O[C@H](C)[C@@H](O[C@H]3C[C@@](C)(O)[C@@H](O)[C@H](C)O3)[C@H](N(C)C)[C@H]2O)[C@@H](CC=O)C[C@@H](C)C(=O)/C=C/C(C)=C/[C@@H]1CO[C@@H]1O[C@H](C)[C@@H](O)[C@@H](OC)[C@H]1OC [Tylosin, Tylosin tartrate]",–,–,–,–,–,–,–,–,–,–,–,–,–,–,–,–,increased,increased,significantly lower
